Measurements taken from US11208400B2, “Substituted 6-(1H-pyrazol-1-yl)pyrimidin-4-amine derivatives and uses thereof” (Bayer Aktiengesellschaft, priority 2016, dated 2021).

Each compound was assayed against T1, human Npt2a (Homo sapiens, UniProt Q06495) (assay: Npt2a activity cell based assay, membrane potential dye, CHO T-REx hNpt2a cells). Settings: doxycycline-induced, depolarization by sodium phosphate influx, average or median values if tested more than once.
T1 construct: expressed in transfected cells
T1 sequence (Q06495 1-639): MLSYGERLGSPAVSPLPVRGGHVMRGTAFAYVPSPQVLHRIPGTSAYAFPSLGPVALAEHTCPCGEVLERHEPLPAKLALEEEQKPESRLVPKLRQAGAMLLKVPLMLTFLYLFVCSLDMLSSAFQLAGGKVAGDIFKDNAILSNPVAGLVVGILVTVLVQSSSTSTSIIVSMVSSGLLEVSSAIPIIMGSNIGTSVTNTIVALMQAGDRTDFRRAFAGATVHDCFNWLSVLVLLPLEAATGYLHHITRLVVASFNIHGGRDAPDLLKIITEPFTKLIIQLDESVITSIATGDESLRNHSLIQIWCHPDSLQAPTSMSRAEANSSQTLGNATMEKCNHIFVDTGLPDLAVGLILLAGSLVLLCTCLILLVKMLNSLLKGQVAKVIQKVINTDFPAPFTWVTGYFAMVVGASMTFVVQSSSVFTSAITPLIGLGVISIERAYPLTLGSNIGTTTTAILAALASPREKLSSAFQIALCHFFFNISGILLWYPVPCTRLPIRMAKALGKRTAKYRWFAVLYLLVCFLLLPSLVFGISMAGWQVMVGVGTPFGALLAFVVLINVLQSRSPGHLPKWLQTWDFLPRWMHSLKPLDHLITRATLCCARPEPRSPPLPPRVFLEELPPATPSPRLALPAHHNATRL
Outline: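 Cells were doxycycline-induced CHO T-REx hNpt2a, dye-loaded and pretreated 5 min at RT with 1 nM–50 μM compound in Na-free pH 7.4 buffer. IC50 was fit to the post/pre-trigger fluorescence ratio.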
`CCc1c(Nc2cc(-n3nc(C)c(CN4CCN(C)CC4)c3C)ncn2)nn(C)c1-c1ccc(F)cc1` [Example 297, 6-{3,5-dimethyl-4-[(4-methylpiperazin-1-yl)methyl]-1H-pyrazol-1-yl}-N-[4-ethyl-5-(4-fluorophenyl)-1-methyl-1H-pyrazol-3-yl]pyrimidin-4-amine] gave an IC50 of 1430 nM. In the case of `Cc1cc(C)n(-c2cc(Nc3c(Cl)c(-c4ccc(F)cc4F)nn3C)ncn2)n1` [Example 50, N-[4-chloro-3-(2,4-difluorophenyl)-1-methyl-1H-pyrazol-5-yl]-6-(3,5-dimethyl-1H-pyrazol-1-yl)pyrimidin-4-amine], the IC50 is reported as 160 nM. `Cc1cc(C)n(-c2cc(Nc3c(C)c(-c4ccc(OC(F)(F)F)cc4)nn3C)ncn2)n1` [Example 116, 6-(3,5-dimethyl-1H-pyrazol-1-yl)-N-{1,4-dimethyl-3-[4-(trifluoromethoxy)phenyl]-1H-pyrazol-5-yl}pyrimidin-4-amine] showed an IC50 of 92.5 nM. Work on `Cc1c(-c2ccc(C#N)cc2)nn(CC2CC2)c1Nc1cc(-n2cc(C(F)(F)F)cn2)ncn1` [Example 247, 4-[1-(cyclopropylmethyl)-4-methyl-5-({6-[4-(trifluoromethyl)-1H-pyrazol-1-yl]pyrimidin-4-yl}amino)-1H-pyrazol-3-yl]benzonitrile] yielded an IC50 of 29 nM. With `Cc1nn(-c2cc(Nc3c(C)nn(-c4ccc(F)cc4)c3C)ncn2)c(C)c1CC(C)(C)O` [Example 393, 1-[1-(6-{[1-(4-fluorophenyl)-3,5-dimethyl-1H-pyrazol-4-yl]amino}pyrimidin-4-yl)-3,5-dimethyl-1H-pyrazol-4-yl]-2-methylpropan-2-ol] the IC50 was 180 nM. For `Cc1nn(-c2cc(Nc3nn(C)c(-c4ccc(OC(F)(F)F)cc4)c3C)ncn2)c(C)c1Cl` [Example 117, 6-(4-chloro-3,5-dimethyl-1H-pyrazol-1-yl)-N-{1,4-dimethyl-5-[4-(trifluoromethoxy)phenyl]-1H-pyrazol-3-yl}pyrimidin-4-amine], the IC50 was 19 nM. `Cc1c(-c2ccc(C#N)cc2)nn(C)c1Nc1cc(-n2[nH]c3c(c2=O)CCCC3)ncn1` [Example 472, 4-(1,4-dimethyl-5-{[6-(3-oxo-1,3,4,5,6,7-hexahydro-2H-indazol-2-yl)pyrimidin-4-yl]amino}-1H-pyrazol-3-yl)benzonitrile] was tested, and the IC50 was 880 nM. For `CCOC(=O)c1c(C)nn(-c2cc(Nc3c(C)c(-c4ccc(C(F)F)cc4)nn3CC3CC3)ncn2)c1C` [Example 454, ethyl 1-[6-({1-(cyclopropylmethyl)-3-[4-(difluoromethyl)phenyl]-4-methyl-1H-pyrazol-5-yl}amino)pyrimidin-4-yl]-3,5-dimethyl-1H-pyrazole-4-carboxylate], the IC50 was 11 nM. `Cc1nn(-c2cc(Nc3c(C)c(-c4ccc(C(F)F)nc4)nn3CC3CC3)ncn2)c(C)c1Cl` [Example 511, 6-(4-chloro-3,5-dimethyl-1H-pyrazol-1-yl)-N-{1-(cyclopropylmethyl)-3-[6-(difluoromethyl)pyridin-3-yl]-4-methyl-1H-pyrazol-5-yl}pyrimidin-4-amine] showed an IC50 of 120 nM. With `CCOC(=O)c1c(C)nn(-c2cc(Nc3c(CC)c(-c4ccc(F)cc4)nn3C)ncn2)c1C` [Example 155, ethyl 1-(6-{[4-ethyl-3-(4-fluorophenyl)-1-methyl-1H-pyrazol-5-yl]amino}pyrimidin-4-yl)-3,5-dimethyl-1H-pyrazole-4-carboxylate] the IC50 was 9 nM. `COc1c(-c2ccc(C#N)cc2)nn(C)c1Nc1cc(-n2nc(C)cc2C)ncn1` [Example 444, 4-(5-{[6-(3,5-dimethyl-1H-pyrazol-1-yl)pyrimidin-4-yl]amino}-4-methoxy-1-methyl-1H-pyrazol-3-yl)benzonitrile] was tested, and the IC50 was 120 nM. With `CCOC(=O)c1c(C)nn(-c2cc(Nc3nn(C)c(-c4ccc(F)cc4)c3C)ncn2)c1C` [Example 61, ethyl 1-(6-{[5-(4-fluorophenyl)-1,4-dimethyl-1H-pyrazol-3-yl]amino}pyrimidin-4-yl)-3,5-dimethyl-1H-pyrazole-4-carboxylate] the IC50 was 4.4 nM. `CNc1ccc(-c2nn(CC3CC3)c(Nc3cc(-n4nc(C)cc4C)ncn3)c2C)cc1` [Example 480, N-{1-(cyclopropylmethyl)-4-methyl-3-[4-(methylamino)phenyl]-1H-pyrazol-5-yl}-6-(3,5-dimethyl-1H-pyrazol-1-yl)pyrimidin-4-amine] showed an IC50 of 375 nM. `CCOC(=O)c1c(C)nn(-c2cc(Nc3c(C)c(-c4ccc(C)nc4)nn3CC3CC3)ncn2)c1C` [Example 418, ethyl 1-(6-{[1-(cyclopropylmethyl)-4-methyl-3-(6-methylpyridin-3-yl)-1H-pyrazol-5-yl]amino}pyrimidin-4-yl)-3,5-dimethyl-1H-pyrazole-4-carboxylate] showed an IC50 of 65 nM. Compound `Cc1ccc(-c2nn(CC3CC3)c(Nc3cc(-n4nc(C)c(C(F)(F)F)c4C)ncn3)c2C)cn1` [Example 455, N-[1-(cyclopropylmethyl)-4-methyl-3-(6-methylpyridin-3-yl)-1H-pyrazol-5-yl]-6-[3,5-dimethyl-4-(trifluoromethyl)-1H-pyrazol-1-yl]pyrimidin-4-amine] has an IC50 of 165 nM. Work on `CC(=O)Cc1c(C)nn(-c2cc(Nc3c(C)c(-c4ccc(F)cc4)nn3CC3CC3)ncn2)c1C` [Example 490, 1-[1-(6-{[1-(cyclopropylmethyl)-3-(4-fluorophenyl)-4-methyl-1H-pyrazol-5-yl]amino}pyrimidin-4-yl)-3,5-dimethyl-1H-pyrazol-4-yl]propan-2-one] yielded an IC50 of 6 nM. Work on `COc1ccc(-c2nn(CC3CC3)c(Nc3cc(-n4nc(C)cc4C(F)F)ncn3)c2C)cc1` [Example 489, N-[1-(cyclopropylmethyl)-3-(4-methoxyphenyl)-4-methyl-1H-pyrazol-5-yl]-6-[5-(difluoromethyl)-3-methyl-1H-pyrazol-1-yl]pyrimidin-4-amine] yielded an IC50 of 270 nM. Work on `Cc1nn(-c2cc(Nc3c(C)c(-c4ccc(C#N)cc4)nn3CC3CC3)ncn2)c(C)c1C(C)(O)C(F)(F)F` (racemic) [Example 322, (±)-4-{1-(cyclopropylmethyl)-5-[(6-{3,5-dimethyl-4-[(2S)-1,1,1-trifluoro-2-hydroxypropan-2-yl]-1H-pyrazol-1-yl}pyrimidin-4-yl)amino]-4-methyl-1H-pyrazol-3-yl}benzonitrile (Racemate)] yielded an IC50 of 4 nM. `CCOC(=O)c1c(C)nn(-c2cc(Nc3c(CC)c(-c4ccc(F)cc4)nn3CC3CC3)ncn2)c1C` [Example 147, ethyl 1-(6-{[1-(cyclopropylmethyl)-4-ethyl-3-(4-fluorophenyl)-1H-pyrazol-5-yl]amino}pyrimidin-4-yl)-3,5-dimethyl-1H-pyrazole-4-carboxylate] showed an IC50 of 3 nM. `Cc1cc(C(F)F)n(-c2cc(Nc3c(C)c(-c4ccc(C(F)(F)F)nc4)nn3C)ncn2)n1` [Example 548, 6-[5-(difluoromethyl)-3-methyl-1H-pyrazol-1-yl]-N-{1,4-dimethyl-3-[6-(trifluoromethyl)pyridin-3-yl]-1H-pyrazol-5-yl}pyrimidin-4-amine] was tested, and the IC50 was 790 nM. `CCOC(C)c1c(C)nn(-c2cc(Nc3c(C)c(-c4ccc(C#N)cc4)nn3CC3CC3)ncn2)c1C` (racemic) [Example 342, (±)-4-{1-(cyclopropylmethyl)-5-[(6-{4-[1-ethoxyethyl]-3,5-dimethyl-1H-pyrazol-1-yl}pyrimidin-4-yl)amino]-4-methyl-1H-pyrazol-3-yl}benzonitrile] showed an IC50 of 2 nM. `CCc1c(Nc2cc(-n3nc(C)c(C(C)(C)O)c3C)ncn2)n[nH]c1-c1ccc(F)cc1` [Example 181, 2-[1-(6-{[4-ethyl-5-(4-fluorophenyl)-1H-pyrazol-3-yl]amino}pyrimidin-4-yl)-3,5-dimethyl-1H-pyrazol-4-yl]propan-2-ol] was tested, and the IC50 was 1500 nM. `Cc1nn(-c2cc(Nc3c(C)c(-c4ccc(F)cc4)nn3CC3CC3)ncn2)c(C)c1C#N` [Example 288, 1-(6-{[1-(cyclopropylmethyl)-3-(4-fluorophenyl)-4-methyl-1H-pyrazol-5-yl]amino}pyrimidin-4-yl)-3,5-dimethyl-1H-pyrazole-4-carbonitrile] showed an IC50 of 16 nM. Work on `Cc1nn(-c2cc(Nc3nn(C)c(-c4ccc(F)cc4)c3Cl)ncn2)c2ccccc12` [Example 110, N-[4-chloro-5-(4-fluorophenyl)-1-methyl-1H-pyrazol-3-yl]-6-(3-methyl-1H-indazol-1-yl)pyrimidin-4-amine] yielded an IC50 of 22 nM. With `Cc1cc(C)n(-c2cc(Nc3c(C)c(-c4ccc(C#N)cc4)nn3C)ncn2)n1` [Example 197, 4-(5-{[6-(3,5-dimethyl-1H-pyrazol-1-yl)pyrimidin-4-yl]amino}-1,4-dimethyl-1H-pyrazol-3-yl)benzonitrile] the IC50 was 28 nM. Work on `Cc1cc(C)n(-c2cc(Nc3c(C)c(-c4ccc(F)cc4)nn3C)ncn2)n1` [Example 71, 6-(3,5-dimethyl-1H-pyrazol-1-yl)-N-[3-(4-fluorophenyl)-1,4-dimethyl-1H-pyrazol-5-yl]pyrimidin-4-amine] yielded an IC50 of 50 nM. Work on `COc1c(C)nn(-c2cc(Nc3c(C)c(-c4ccc(F)cc4)nn3C)ncn2)c1C` [Example 437, N-[3-(4-fluorophenyl)-1,4-dimethyl-1H-pyrazol-5-yl]-6-(4-methoxy-3,5-dimethyl-1H-pyrazol-1-yl)pyrimidin-4-amine] yielded an IC50 of 21 nM.
